The values below come from patent publication US8021846B2, “Method for determining azole resistance in Candida glabrata” (Medical Diagnostic Laboratories, LLC, priority 2008, dated 2011).

For orientation: MIC means the lowest concentration that inhibits growth of the organism. Read a high MIC as a need for much substance.

Structures are written as SMILES. Values after ≈ are worked out from the molar mass of the structure shown.

For this test, the system named is Candida glabrata clinical isolates. Nature of the test: Microbroth dilution assay (CLSI M27-A2) of azole susceptibility of clinical isolates.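 As to all read-outs here: growth of C. glabrata cervicovaginal isolates in 96-well plates, absorbance at 620 nm minus medium background, 35 °C for 24 and 48 h, DMSO ≦0.5%.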 The conditions noted are these: for % of isolates S (susceptible) / No. of isolates S (susceptible): 175 C. glabrata cervicovaginal clinical isolates, S = MIC ≦8 μg/ml fluconazole, ≦1 μg/ml voriconazole, proposed breakpoints for voriconazole and miconazole; for MIC: Nakaseomyces glabratus.

Source text: One hundred seventy-five (175) Candida glabrata clinical isolates were retrieved from cervicovaginal swabs. Clinical isolates were obtained from cervicovaginal swabs of female patients suspected of having vulvovaginal candidiasis (WC) from across the United States. Candida glabrata PCR positive swabs were struck out on Candida CHROMagar, and individual Candida glabrata colonies were isolated for susceptibility testing using the microbroth dilution assay according to the Clinical and Laboratory Standards Institute protocol. Susceptibilities of these isolates to triazole anti-fungal drugs (e.g., fluconazole, voriconazole, and miconazole) were determined.
The microbroth dilution assays were performed using RPMI 1640 (minus glutamine, and 0.165 M MOPS to pH 7.0) (Sigma, St. Louis, Mo.). […] Drugs were obtained from the following sources: fluconazole (LKT Laboratories, St. Paul, Minn.), miconazole (MP Biomedicals, Inc., Solon, Ohio) and voriconazole (Pfizer, New York, N.Y.). All drugs were dissolved in dimethyl sulfoxide (DMSO) to a final concentration of ≦0.5% in all experiments at which C. glabrata growth was not affected.
Protocols for microbroth dilution assays (i.e., susceptibility testing) was performed by MBD according to the Clincial and Laboratory Standards Institute (CLSI) guidelines outlined in M27-A2. Azole antifungals and concentrations tested were fluconazole (2 to 128 μg/ml), voriconazole (8 to 0.125 μg/ml), and miconazole (8 to 0.125 μg/ml). Candida glabrata isolates were growth in RPMI 1640 media (minus glutamine, plus 2% glucose, and 0.165M MOPS to pH 7.0) to mid-log phase and cultures were diluted to 5×10^3 cells/ml in RPMI 1640 medium. Aliquots of 100 μl were distributed to wells of a 96-well flat-bottom plate, except for row A which received 200 μl. Drug was added to row A at the desired concentration (fluconazole, 128 μg/ml, voriconazole 8 μg/ml, and miconazole 8 μg/ml) and then serially two-fold diluted to rows B through G; row H served as a drug-free control. Plates were incubated at 35° C. for 24 and 48 hours. Absorbance at 620 nm was read with a microplate reader (Beckman Coulter, Inc., Fullerton, Calif.); background due to medium was subtracted from all readings.
The MIC was defined as the lowest concentration inhibiting growth at least 80% relative to the drug-free control.

Take `Clc1ccc(COC(Cn2ccnc2)c2ccc(Cl)cc2Cl)c(Cl)c1` (stereo not shown) [Miconazole, miconazole]: the “% of isolates S (susceptible)” value turned out to be 100.0% and the “No. of isolates S (susceptible)” value is reported as 175. The “Susceptibility of the clinical isolates (in words)” value (175 C. glabrata clinical isolates) is listed as “All of the clinical isolates were susceptible”.

As to `C[C@@H](c1ncncc1F)[C@](O)(Cn1cncn1)c1ccc(F)cc1F` [Voriconazole, voriconazole], the “% of isolates S (susceptible)” value is 62.3% and the “No. of isolates S (susceptible)” value came out at 109.

Take `OC(Cn1cncn1)(Cn1cncn1)c1ccc(F)cc1F` [Fluconazole, fluconazole]: the “% of isolates S (susceptible)” value was found to be 30.9% and the “No. of isolates S (susceptible)” value is reported as 54. In addition, under “isolates of swab S1 (susceptible group)”, the minimal inhibitory concentration (MIC) is 8 µg/mL (≈ 26.1 µM). Further, the MIC (isolates of swab S2 (susceptible group)) was found to be 4 µg/mL (≈ 13.1 µM). For the same compound, where the note is “isolates of swab S3 (susceptible group)”, the MIC was found to be 4 µg/mL (≈ 13.1 µM). For the same compound, for the setting “isolates of swab S4 (susceptible group)”, the MIC amounted to 2 µg/mL (≈ 6.53 µM). This compound yielded an MIC (isolates of swab S5 (susceptible group)) of 4 µg/mL (≈ 13.1 µM). The same compound registered an MIC (isolates of swab S6 (susceptible group)) of 4 µg/mL (≈ 13.1 µM). The same compound had an MIC (isolates of swab S7 (susceptible group)) of 4 µg/mL (≈ 13.1 µM). The MIC (isolates of swab S8 (susceptible group)) was determined as 4 µg/mL (≈ 13.1 µM). The compound further gave a minimum inhibitory concentration (MIC) (isolates of swab S9 (susceptible group)) of 2 µg/mL (≈ 6.53 µM). For the same compound, the MIC (isolates of swab S11 (S-DD group)) stood at 16 µg/mL (≈ 52.2 µM). The same compound had an MIC (isolates of swab S12 (S-DD group)) of 16 µg/mL (≈ 52.2 µM). For the setting “isolates of swab S13 (S-DD group)”, this compound returned an MIC of 16 µg/mL (≈ 52.2 µM). The compound also displayed an MIC (isolates of swab S14 (S-DD group)) of 16 µg/mL (≈ 52.2 µM). The MIC (isolates of swab S15 (S-DD group)) worked out at 32 µg/mL (≈ 104 µM). This compound registered an MIC (isolates of swab S16 (S-DD group)) of 16 µg/mL (≈ 52.2 µM). The same compound showed an MIC (isolates of swab S17 (S-DD group)) of 16 µg/mL (≈ 52.2 µM). Besides, for the setting “isolates of swab S18 (S-DD group)”, the minimal inhibitory concentration (MIC) was 16 µg/mL (≈ 52.2 µM). Further, the MIC (isolates of swab S19 (S-DD group)) amounted to 32 µg/mL (≈ 104 µM). The compound further registered an MIC (isolates of swab S20 (S-DD group)) of 32 µg/mL (≈ 104 µM). Also, the minimum inhibitory concentration (MIC) (isolates of swab S21 (resistant group)) came out at 128 µg/mL (≈ 418 µM). Moreover, for the setting “isolates of swab S22 (resistant group)”, the MIC amounted to 128 µg/mL (≈ 418 µM). The same compound showed an MIC (isolates of swab S23 (resistant group)) of 128 µg/mL (≈ 418 µM). The MIC (isolates of swab S24 (resistant group)) is 128 µg/mL (≈ 418 µM). The compound also came in with an MIC (isolates of swab S25 (resistant group)) of 64 µg/mL (≈ 209 µM). Moreover, the MIC (isolates of swab S26 (resistant group)) is 128 µg/mL (≈ 418 µM). Further, the MIC (isolates of swab S27 (resistant group)) amounted to 64 µg/mL (≈ 209 µM). For the same compound, the MIC (isolates of swab S28 (resistant group)) amounted to 128 µg/mL (≈ 418 µM). The MIC (isolates of swab S29 (resistant group)) is 64 µg/mL (≈ 209 µM). In addition, the MIC (swab S10, the single resistant isolate) amounted to 128 µg/mL (≈ 418 µM). For the setting “swab S10, the two susceptible isolates”, this compound yielded an MIC of 8 µg/mL (≈ 26.1 µM).
